Assays:
[1] = system: secreted APP; assay: ELISA for secreted APP in SHSY5Y cells; type: cell-based, human; details: 16 hours
Procedure: (§1) An enzyme-linked immunosorbent assay was developed to detect secreted APP in SHSY5Y cells, a human neuroblastoma cell line. The purpose of the screen was to discover small molecules that inhibit APP protein synthesis in SHSY5Y cells. SHSY5Y cells were plated at 1×10^5 cells/well in […] of DMEM containing 0.5% heat inactivated FBS in 96 well tissue culture treated plates (Falcon no. 35 3072). 144 MES compounds were tested at final concentrations of […] in 0.1% DMSO. Compounds were added and the plates incubated for 16 hours at 37° C./5% CO2. Maxisorp plates (Nunc no. 437958) were coated overnight with […] capture antibody (Biosource 44-100) diluted in Ca^++ and Mg^++ free PBS. Biosource 44-100 is a mouse mAb that recognizes aa 1-100 of human APP. Plates were blocked for 30 minutes with 1 mg/mL BSA in Ca^++ and Mg^++ free PBS. Plates were washed 3× with wash buffer (Ca^++ and Mg^++ free PBS+0.01% Tween20). […] of supernatants and non-cultured medium controls were transferred from culture plates to ELISA plates. Culture plates were reserved for toxicity analysis. Supernatants were incubated for 4 hours at RT on a plate shaker. After supernatant incubation, plates were washed 3×. Primary antibody (Signet Clone 6E-10 biotin) was added at 0.3125 mg/mL and incubated overnight at 4° C. The recognition site of 6E-10 is aa 1-17 of Ab. For detection, a 1:3000 dilution of horseradish peroxidase conjugated streptavidin (Endogen no. N-100) was incubated for 30 minutes. Plates were washed 3×. Enzyme activity was assessed by incubation with […] TMB substrate solution (Moss no. TMB-US) for 20 minutes. The reaction was stopped by the addition of […] 0.18M sulfuric acid. Optical density was read at 450 nm on Wallac Victor2 plate reader. During the first incubation, toxicity was determined using MTS assay, Cell Titer96 AQ reagent (Promega no. G5430). The background values from the non-cultured medium control were subtracted from the sample values and secreted APP levels and toxicity were expressed as % vehicle control. Of the 144 MES compounds screened, 12 inhibited secreted APP as determined by ELISA. The results are depicted in FIGS. 13A-M.
(§2) Using the experimental procedure outlined above, APP secretion and toxicity studies were performed on several other non-carbamate compounds, and the results are shown in Tables 3 and 4. The compound structures are provided in Table 2 in the application, which are identified by their MES number.

[2] = system: SH-SY-5Y Cells; assay: MTS toxicity assay in SHSY5Y cells; type: cell-based, human
Procedure: as §1, §2

SMILES | APP Secretion by SH-SY-5Y Cells ([1]; Dose 2 uM) | APP Secretion by SH-SY-5Y Cells ([1]; Dose 6 uM) | APP Secretion by SH-SY-5Y Cells ([1]; Dose 20 uM) | APP Toxicity SH-SY-5Y Cells (MTS assay) ([2]; Dose 2 uM) | APP Toxicity SH-SY-5Y Cells (MTS assay) ([2]; Dose 6 uM) | APP Toxicity SH-SY-5Y Cells (MTS assay) ([2]; Dose 20 uM) | APP Secretion by SH-SY-5Y Cells ([1]; Dose 0.08 uM) | APP Secretion by SH-SY-5Y Cells ([1]; Dose 0.25 uM) | APP Secretion by SH-SY-5Y Cells ([1]; Dose 0.74 uM) | APP Toxicity SH-SY-5Y Cells (MTS assay) ([2]; Dose 0.08 uM) | APP Toxicity SH-SY-5Y Cells (MTS assay) ([2]; Dose 0.25 uM) | APP Toxicity SH-SY-5Y Cells (MTS assay) ([2]; Dose 0.74 uM) | APP Secretion by SH-SY-5Y Cells ([1]; Dose 2 uM, listed as 9228) | APP Secretion by SH-SY-5Y Cells ([1]; Dose 6 uM, listed as 9228) | APP Secretion by SH-SY-5Y Cells ([1]; Dose 20 uM, listed as 9228) | APP Toxicity SH-SY-5Y Cells (MTS assay) ([2]; Dose 2 uM, listed as 9228) | APP Toxicity SH-SY-5Y Cells (MTS assay) ([2]; Dose 6 uM, listed as 9228) | APP Toxicity SH-SY-5Y Cells (MTS assay) ([2]; Dose 20 uM, listed as 9228)
COc1ccc2c(c1)[C@]1(C)CCN(C)C1N2Cc1ccccc1 (single isomer, unassigned) [MES 9202] | 94.4 % vehicle control | 107.55 % vehicle control | 110.05 % vehicle control | 99.15 % vehicle control | 97.85 % vehicle control | 90.25 % vehicle control | – | – | – | – | – | – | – | – | – | – | – | –
COc1ccc2c(c1)[C@@]1(C)CCN(C)C1N2Cc1ccccc1 (single isomer, unassigned) [MES 9203] | 103.1 % vehicle control | 103.9 % vehicle control | 108.4 % vehicle control | 98.93 % vehicle control | 99.17 % vehicle control | 98.83 % vehicle control | – | – | – | – | – | – | – | – | – | – | – | –
COc1ccc2c(c1)[C@@]1(C)CCN(C)C1N2C (single isomer, unassigned; (+)) [MES 9295, (+)-O-Methyleseroline] | 102.6 % vehicle control | 95.7 % vehicle control | 89.35 % vehicle control | 101.15 % vehicle control | 100.4 % vehicle control | 99.85 % vehicle control | – | – | – | – | – | – | – | – | – | – | – | –
CN1CC[C@@]2(C)c3cc(O)ccc3N(C)C2NC1=O (single isomer, unassigned; (-)) [MES 9205] | 96.73 % vehicle control | 96.9 % vehicle control | 22.17 % vehicle control | 97.9 % vehicle control | 97.73 % vehicle control | 33.33 % vehicle control | 115.1 % vehicle control | 107.4 % vehicle control | 114.7 % vehicle control | 108.7 % vehicle control | 105.8 % vehicle control | 105.6 % vehicle control | – | – | – | – | – | –
CN1c2ccc(OC3CCCCO3)cc2[C@]2(C)CCNC12 (single isomer, unassigned; (-)) [MES 9320, (−)-O-Tetrahydropyranyl-N-1-noreseroline] | 103.15 % vehicle control | 91.8 % vehicle control | 15.2 % vehicle control | 92 % vehicle control | 84 % vehicle control | 28 % vehicle control | – | – | – | – | – | – | – | – | – | – | – | –
COc1ccc2c(c1)c(CCN(C)C)cn2Cc1ccccc1 [MES 9191, N,N-Dimethyl-N^1-benzyl-5-methoxytryptamine] | 100.74 % vehicle control | 65.3 % vehicle control | 64.36 % vehicle control | 99.18 % vehicle control | 92.84 % vehicle control | 91.1 % vehicle control | 100.8 % vehicle control | 101.6 % vehicle control | 99.87 % vehicle control | 104.5 % vehicle control | 103.9 % vehicle control | 103.7 % vehicle control | – | – | – | – | – | –
COc1ccc2c(c1)C1(C)CCN(C)C1N2Cc1ccccc1 (stereo not drawn) [MES 9199] | 92.2 % vehicle control | 93.9 % vehicle control | 102.95 % vehicle control | 100.5 % vehicle control | 101.65 % vehicle control | 101.9 % vehicle control | – | – | – | – | – | – | – | – | – | – | – | –
COc1ccc2c(c1)C1(C)CCN(C)C1N2 (stereo not drawn) [MES 9201] | 97.25 % vehicle control | 110.75 % vehicle control | 124.65 % vehicle control | 98.9 % vehicle control | 98.65 % vehicle control | 98.25 % vehicle control | – | – | – | – | – | – | – | – | – | – | – | –
CN1CC[C@@]2(C)c3cc(O)ccc3N(Cc3ccccc3)C12 (stereo partly drawn) [MES 9206] | 88.2 % vehicle control | 97.1 % vehicle control | 96.4 % vehicle control | 96 % vehicle control | 91.85 % vehicle control | 76.3 % vehicle control | – | – | – | – | – | – | – | – | – | – | – | –
CN1CC[C@]2(C)c3cc(O)ccc3N(Cc3ccccc3)C12 (stereo partly drawn) [MES 9215] | 94.55 % vehicle control | 108.1 % vehicle control | 6.2 % vehicle control | 92.3 % vehicle control | 78.6 % vehicle control | 12.9 % vehicle control | – | – | – | – | – | – | – | – | – | – | – | –
CN1CC[C@@]2(C)C3=CC(=O)C(=O)C=C3N(C)C12 (stereo partly drawn) [MES 9225] | 110.45 % vehicle control | 109.2 % vehicle control | 59.75 % vehicle control | 104.6 % vehicle control | 100.1 % vehicle control | 66.5 % vehicle control | – | – | – | – | – | – | – | – | – | – | – | –
C=CC1C[N+]2(Cc3ccc(C(F)(F)F)cc3)CCC1CC2[C@H](O)c1ccnc2ccccc12.[Br-] (stereo partly drawn) [MES 9226] | 116.55 % vehicle control | 101.95 % vehicle control | 104.65 % vehicle control | 106.4 % vehicle control | 99.7 % vehicle control | 97.9 % vehicle control | – | – | – | – | – | – | – | – | – | – | – | –
COc1ccc2c(c1)[C@@](C)(CC#N)C(=O)N2C [MES 9227] | 101.15 % vehicle control | 99.45 % vehicle control | 120.5 % vehicle control | 103.7 % vehicle control | 99.27 % vehicle control | 96.07 % vehicle control | – | – | – | – | – | – | – | – | – | – | – | –
COc1ccc2c(c1)[C@@]1(C)CCNC1N2C (stereo partly drawn) [MES 9228] | – | – | – | – | – | – | – | – | – | – | – | – | 97.75 % vehicle control | 110.45 % vehicle control | 130.05 % vehicle control | 102.8 % vehicle control | 97.6 % vehicle control | 95.4 % vehicle control
COc1ccc2c(c1)[C@@]1(C)CCN(C)C1N2C (stereo partly drawn) [MES 9229] | 111.6 % vehicle control | 111.4 % vehicle control | 125.1 % vehicle control | 99.97 % vehicle control | 96.07 % vehicle control | 91.47 % vehicle control | – | – | – | – | – | – | – | – | – | – | – | –

— patent US8691864B2, “Agents useful for reducing amyloid precursor protein and treating dementia and methods of use thereof” (priority 2000, dated 2014)
